Results: US20210221848A1, “POLYMYXIN DERIVATIVES AND THEIR USE IN COMBINATION THERAPY TOGETHER WITH DIFFERENT ANTIBIOTICS” (priority 2014, published 2021)

Tests used:
E. coli [1] = experiment: MIC in the presence of a fixed concentration (2 μg/mL) of Rifampicin; type: cell-based, Escherichia coli; details: Rifampicin 2 μg/mL, Table 5D
K. pneumoniae [2] = experiment: as above; type: cell-based, Klebsiella pneumoniae; details: Rifampicin 2 μg/mL, Table 5D
Protocol: (§1) The inoculum was prepared by making a direct suspension of isolated colonies (selected from an 18-24 hour Mueller-Hinton agar plate) adjusted to the 0.5 McFarland standard. […] The assays were performed in duplicate. […] In cases where the duplicate values varied by less than 2-fold, the lower of the two values is reported. If a variation of greater than 2-fold was observed, the assay was considered non-valid. Several of the compounds were subjected to multiple tests, and where this is the case, the MIC reflects the modal value obtained.

A. baumannii [3] = experiment: MIC in the presence of […] of rifampicin; type: cell-based, Acinetobacter baumannii; details: for MIC in combination with Rifampicin, A. baumannii ATCC BAA-747: A. baumannii ATCC BAA-747, Table 5D; for MIC in combination with Rifampicin, A. baumannii NCTC 13424: A. baumannii NCTC 13424, Table 5D
Protocol: as §1

[4] = test system: E. coli strains with elevated MICs to Polymyxin B; experiment: MIC against strains with elevated MICs to Polymyxin B; type: cell-based, Escherichia coli; details: Table 6D; for MIC E. coli 059: strain 059, elevated MIC to Polymyxin B; for MIC E. coli 060: strain 060, elevated MIC to Polymyxin B; for MIC E. coli 061: strain 061, elevated MIC to Polymyxin B; for MIC E. coli 058: strain 058, elevated MIC to Polymyxin B
In short: (§2)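 Values are modal MICs where compounds were tested repeatedly, otherwise the lower of duplicates agreeing within 2-fold, with greater variation rejected. Inoculum: isolated colonies from 18-24 h Mueller-Hinton agar, suspended directly to 0.5 McFarland.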

[5] = test system: K. pneumoniae strains with elevated MICs to Polymyxin B; experiment: as above; type: cell-based, Klebsiella pneumoniae; details: Table 6D; for MIC K. pneumoniae 062: strain 062, elevated MIC to Polymyxin B; for MIC K. pneumoniae 063: strain 063, elevated MIC to Polymyxin B; for MIC K. pneumoniae 064: strain 064, elevated MIC to Polymyxin B; for MIC K. pneumoniae 655: strain 655, elevated MIC to Polymyxin B
In short: as §2

[6] = test system: P. aeruginosa strains with elevated MICs to Polymyxin B; experiment: as above; type: cell-based, Pseudomonas aeruginosa; details: Table 6D; for MIC P. aeruginosa 066: strain 066, elevated MIC to Polymyxin B; for MIC P. aeruginosa 067: strain 067, elevated MIC to Polymyxin B
In short: as §2

[7] = test system: A. baumanii strains with elevated MICs to Polymyxin B; experiment: as above; type: cell-based, Acinetobacter baumannii; details: Table 6D; for MIC A. baumannii 053: strain 053, elevated MIC to Polymyxin B; for MIC A. baumannii 056: strain 056, elevated MIC to Polymyxin B; for MIC A. baumannii 068: strain 068, elevated MIC to Polymyxin B; for MIC A. baumannii 070: strain 070, elevated MIC to Polymyxin B
In short: as §2

E. coli [8] = details: absence of a second agent, Table 6B
K. pneumoniae [9] = details: absence of a second agent, Table 6B
P. aeruginosa = details: absence of a second agent, Table 6B
A. baumannii [10] = details: absence of a second agent, Table 6B

| Substance | MIC in combination with Rifampicin, E. coli ATCC 25922 (E. coli [1]) | MIC in combination with Rifampicin, E. coli NCTC 13441 (E. coli [1]) | MIC in combination with Rifampicin, K. pneumoniae ATCC 4352 (K. pneumoniae [2]) | MIC in combination with Rifampicin, K. pneumoniae ATCC BAA-2146 (K. pneumoniae [2]) | MIC in combination with Rifampicin, A. baumannii ATCC BAA-747 (A. baumannii [3]) | MIC in combination with Rifampicin, A. baumannii NCTC 13424 (A. baumannii [3]) | MIC E. coli 059 [4] | MIC E. coli 060 [4] | MIC E. coli 061 [4] | MIC K. pneumoniae 062 [5] | MIC K. pneumoniae 063 [5] | MIC K. pneumoniae 064 [5] | MIC, E. coli ATCC 25922 (E. coli [8]) | MIC, E. coli NCTC 13441 (E. coli [8]) | MIC, K. pneumoniae ATCC 4352 (K. pneumoniae [9]) | MIC, K. pneumoniae ATCC BAA-2146 (K. pneumoniae [9]) | MIC, P. aeruginosa ATCC 27853 (P. aeruginosa) | MIC, P. aeruginosa CCUG 59347 (P. aeruginosa) | MIC, A. baumannii ATCC BAA-747 (A. baumannii [10]) | MIC, A. baumannii NCTC 13424 (A. baumannii [10]) | other results |
| --- | --- | --- | --- | --- | --- | --- | --- | --- | --- | --- | --- | --- | --- | --- | --- | --- | --- | --- | --- | --- | --- |
| 2-(2-aminoethyl)- undecanoyl polymyxin B nonapeptide [Example D26] | 0.25 micrograms/mL | 1 micrograms/mL | 0.5 micrograms/mL | 4 micrograms/mL | 2 micrograms/mL | 1 micrograms/mL | 0.5 micrograms/mL | 2 micrograms/mL | 4 micrograms/mL | 2 micrograms/mL | 4 micrograms/mL | 0.5 micrograms/mL | 0.5 micrograms/mL | 2 micrograms/mL | 1 micrograms/mL | 2 micrograms/mL | 0.5 micrograms/mL | 0.5 micrograms/mL | 0.5 micrograms/mL | 2 micrograms/mL | MIC K. pneumoniae 655 [5]: 4 micrograms/mL; MIC P. aeruginosa 066 [6]: 1 micrograms/mL; MIC P. aeruginosa 067 [6]: 8 micrograms/mL; MIC A. baumannii 053 [7]: 8 micrograms/mL; MIC A. baumannii 056 [7]: 4 micrograms/mL; MIC A. baumannii 068 [7]: 2 micrograms/mL; MIC A. baumannii 070 [7]: 2 micrograms/mL |
| 2-(2-aminoethyl)- undecanoyl polymyxin B nonapeptide [Example D27] | 0.125 micrograms/mL | – | 0.5 micrograms/mL | 4 micrograms/mL | 1 micrograms/mL | 1 micrograms/mL | 2 micrograms/mL | 4 micrograms/mL | 16 micrograms/mL | 16 micrograms/mL | 64 micrograms/mL | 16 micrograms/mL | 0.125 micrograms/mL | 0.06 micrograms/mL | 0.25 micrograms/mL | 0.5 micrograms/mL | 0.5 micrograms/mL | 0.5 micrograms/mL | 0.25 micrograms/mL | 1 micrograms/mL | MIC E. coli 058 [4]: 2 micrograms/mL; MIC K. pneumoniae 655 [5]: 64 micrograms/mL; MIC P. aeruginosa 066 [6]: 16 micrograms/mL; MIC P. aeruginosa 067 [6]: >64 micrograms/mL; MIC A. baumannii 053 [7]: 64 micrograms/mL; MIC A. baumannii 056 [7]: 32 micrograms/mL; MIC A. baumannii 068 [7]: 2 micrograms/mL; MIC A. baumannii 070 [7]: 4 micrograms/mL |
| (S)-1-octyl-piperazine- 2-carbonyl polymyxin B nonapeptide [Example D28] | 1 micrograms/mL | 0.5 micrograms/mL | 0.5 micrograms/mL | 2 micrograms/mL | 1 micrograms/mL | 1 micrograms/mL | 0.5 micrograms/mL | 2 micrograms/mL | 4 micrograms/mL | 8 micrograms/mL | 16 micrograms/mL | 2 micrograms/mL | 0.125 micrograms/mL | 0.125 micrograms/mL | 0.25 micrograms/mL | 0.5 micrograms/mL | 0.5 micrograms/mL | 1 micrograms/mL | 0.25 micrograms/mL | 1 micrograms/mL | MIC E. coli 058 [4]: 0.5 micrograms/mL; MIC K. pneumoniae 655 [5]: 16 micrograms/mL; MIC P. aeruginosa 065 ([6]; strain 065, elevated MIC to Polymyxin B): 0.5 micrograms/mL; MIC P. aeruginosa 066 [6]: 4 micrograms/mL; MIC P. aeruginosa 067 [6]: 32 micrograms/mL; MIC A. baumannii 053 [7]: 32 micrograms/mL; MIC A. baumannii 056 [7]: 16 micrograms/mL; MIC A. baumannii 068 [7]: 4 micrograms/mL; MIC A. baumannii 070 [7]: 4 micrograms/mL |
| (trans-5-cyclohexyl- piperidine)-3-carbonyl polymyxin B nonapeptide [Example D12] | 0.06 micrograms/mL | 0.25 micrograms/mL | 0.125 micrograms/mL | 0.25 micrograms/mL | 0.5 micrograms/mL | 0.03 micrograms/mL | – | – | – | – | – | – | >8 micrograms/mL | >8 micrograms/mL | >8 micrograms/mL | >8 micrograms/mL | 1 micrograms/mL | 4 micrograms/mL | >8 micrograms/mL | >8 micrograms/mL | – |
| (trans-5-cyclohexyl- piperidine)-3-carbonyl polymyxin B nonapeptide [Example D13] | 0.06 micrograms/mL | 0.125 micrograms/mL | 0.125 micrograms/mL | 0.125 micrograms/mL | 0.125 micrograms/mL | 0.06 micrograms/mL | – | – | – | – | – | – | – | 0.125 micrograms/mL | 0.125 micrograms/mL | 0.25 micrograms/mL | 0.5 micrograms/mL | 0.5 micrograms/mL | 0.5 micrograms/mL | 0.125 micrograms/mL | – |
